Earlier results, collected in patent publication US8314084B2, “Device and methods for sequential, regional delivery of multiple cytotoxic agents and directed assembly of wound repair tissues” (priority 2002, dated 2012).

Settings: given intravenously to dogs

## N.N.[Cl][Pt][Cl] [cisplatin, Cis-diamminedichloroplatinum H]
  usual maximum dose-limiting schedule: 70 mg/m^2
